For 16 molecules, IC50 results are on record in US6673791B2, “Non-nucleoside reverse transcriptase inhibitors” (Boehringer Ingelheim (Canada) Ltd., priority 2001, dated 2004).

What all share (experiment): biochemical
In experiment [1] the target is T1, K103N/Y181C double mutant RT (HIV-1 RT) (Human immunodeficiency virus type 1 group M subtype B, UniProt P03366, K702N/Y780C).
T1 construct: mutations that occur in the reverse transcriptase segment of the pol gene
The source says:
(§1) Based upon testing of these compounds, as described below, it is known that they inhibit the RNA-dependent DNA polymerase activity of HIV-1 RT. […] Utilising the Reverse Transcriptase (RT) Assay described below, compounds can be tested for their ability to inhibit the RNA-dependent DNA polymerase activity of HIV-1 RT. Certain specific compounds described in the Examples which appear below, were so tested. The results of this testing appear in Table 4 as IC50 (nM) and Table 5 as EC50 (nM).
(§2) Reverse TranscriptASE (RT) Assays
(§3) The assays are as described in WO 01/96338A1, the contents of which are hereby incorporated herein. The results are listed in Tables 8 as IC50(nM) and EC50(nM).

Experiment [2] concerns the target T2, V106A mutant RT (HIV-1 RT) (Human immunodeficiency virus type 1 group M subtype B, UniProt P03366, V705A).
T2 construct: mutations that occur in the reverse transcriptase segment of the pol gene
To be noted: IC50 V106A (nM).
Text: as §1, §2, §3

The target of a further experiment is T3, WT RT (HIV-1 RT) (Human immunodeficiency virus type 1 group M subtype B, UniProt P03366).
T3 construct: mutations that occur in the reverse transcriptase segment of the pol gene
Text: as §1, §2, §3

Experiment [3] has as its target T4, Y188L mutant RT (HIV-1 RT) (Human immunodeficiency virus type 1 group M subtype B, UniProt P03366, Y787L).
T4 construct: mutations that occur in the reverse transcriptase segment of the pol gene
To be noted: IC50 Y188L (nM).
Text: as §1, §2, §3

Some results are limits rather than exact numbers.

For `CCN1c2ncc(CCOc3ccc(C(=O)O)c4ccccc34)cc2C(=O)N(C)c2ccc(C)nc21` [Entry 1003], the IC50 in experiment [1] is 100 to 1000 nM; in experiment [2], > 1000 nM; at WT RT (HIV-1 RT), < 100 nM; in experiment [3], > 1000 nM.
`CCN1c2ncc(CCOc3ccc(C(=O)O)c4ccccc34)cc2C(=O)Nc2c(C)cc(F)nc21` [Entry 1004]: the IC50 in experiment [1] is 100 to 1000 nM; in experiment [2] it was 100 to 1000 nM; against WT RT (HIV-1 RT), < 100 nM; in experiment [3], > 1000 nM.
With `CCN1c2ncc(CCOc3ccc(C(=O)O)c4ccccc34)cc2C(=O)Nc2c(C)ccnc21` [Entry 1005], the IC50 in experiment [1] is 100 to 1000 nM; in experiment [2], 100 to 1000 nM; against WT RT (HIV-1 RT), < 100 nM; in experiment [3], > 1000 nM.
As for `CCN1c2ncc(CCOc3ccc(CC(=O)O)c4ccccc34)cc2C(=O)N(C)c2ccc(C)nc21` [Entry 1011], the IC50 in experiment [1] was 100 to 1000 nM; in experiment [2] it was > 1000 nM; against WT RT (HIV-1 RT), < 100 nM; in experiment [3], > 1000 nM.
As to `CCN1c2ncc(CCOc3ccc(CC(=O)O)c4ccccc34)cc2C(=O)Nc2c(C)ccnc21` [Entry 1013], the IC50 in experiment [1] is > 1000 nM; in experiment [2], > 1000 nM; at WT RT (HIV-1 RT), < 100 nM; in experiment [3], > 1000 nM.
With `CCN1c2ncc(CCOc3ccc(CC(=O)O)c4ccccc34)cc2C(=O)Nc2c(C)cc(F)nc21` [Entry 1014], the IC50 in experiment [1] was 100 to 1000 nM; in experiment [2], 100 to 1000 nM; at WT RT (HIV-1 RT), < 100 nM; in experiment [3], > 1000 nM.
`CCN1c2ncc(CCOc3ccc(CC(=O)NN)c4ccccc34)cc2C(=O)N(C)c2ccc(NN)nc21` [Entry 1017]: the IC50 on WT RT (HIV-1 RT) is < 100 nM.
For the molecule `CCN1c2ncc(CCOc3ccc(CC(N)=O)c4ccccc34)cc2C(=O)N(C)c2cccnc21` [Entry 1018], the IC50 is < 100 nM in experiment [1], 100 to 1000 nM in experiment [2], < 100 nM against WT RT (HIV-1 RT) and > 1000 nM in experiment [3].
For the molecule `CCN1c2ncc(CCOc3ccc(CCC(=O)O)c4ccccc34)cc2C(=O)Nc2c(C)ccnc21` [Entry 1024], the IC50 is > 1000 nM in experiment [1], 100 to 1000 nM in experiment [2], < 100 nM on WT RT (HIV-1 RT) and > 1000 nM in experiment [3].
As for `CCN1c2ncc(CCOc3ccc(CCC(=O)O)c4ccccc34)cc2C(=O)N(C)c2ccc(C)nc21` [Entry 1026], the concentration for half-maximal inhibition (IC50) is 100 to 1000 nM in experiment [1], > 1000 nM in experiment [2], < 100 nM on WT RT (HIV-1 RT) and > 1000 nM in experiment [3].
Regarding `CCN1c2ncc(CCOc3ccc(CCC(=O)O)c4ccccc34)cc2C(=O)Nc2c(C)cc(F)nc21` [Entry 1027], the IC50 was 100 to 1000 nM in experiment [1], 100 to 1000 nM in experiment [2], < 100 nM on WT RT (HIV-1 RT) and > 1000 nM in experiment [3].
Consider `CCN1c2ncc(CCOc3ccc(/C=C(\C)C(=O)O)c4ccccc34)cc2C(=O)Nc2c(C)ccnc21` [Entry 1039], for which the IC50 is 100 to 1000 nM in experiment [1], 100 to 1000 nM in experiment [2], < 100 nM at WT RT (HIV-1 RT) and > 1000 nM in experiment [3].
In the case of `CCN1c2ncc(CCOc3ccc(/C=C(\C)C(=O)O)c4ccccc34)cc2C(=O)Nc2c(C)cc(F)nc21` [Entry 1041], the IC50 is 100 to 1000 nM in experiment [1], 100 to 1000 nM in experiment [2], < 100 nM against WT RT (HIV-1 RT) and > 1000 nM in experiment [3].
As to `CCN1c2ncc(CCOc3ccc(CC(C)C(=O)O)c4ccccc34)cc2C(=O)N(C)c2ccc(F)nc21` (stereo not shown) [Entry 1043], the IC50 in experiment [1] is 100 to 1000 nM; in experiment [2], > 1000 nM; at WT RT (HIV-1 RT), < 100 nM; in experiment [3], > 1000 nM.
As to `CCN1c2ncc(CCOc3ccc(CC(C)C(=O)O)c4ccccc34)cc2C(=O)N(C)c2ccc(C)nc21` (stereo not shown) [Entry 1045], the IC50 in experiment [1] is 100 to 1000 nM; in experiment [2], > 1000 nM; at WT RT (HIV-1 RT), < 100 nM; in experiment [3], > 1000 nM.
On to `CCN1c2ncc(CCOc3ccc(CC(C)C(=O)O)c4ccccc34)cc2C(=O)Nc2c(C)ccnc21` (stereo not shown) [Entry 1046], for which the IC50 was > 1000 nM in experiment [1], > 1000 nM in experiment [2], < 100 nM against WT RT (HIV-1 RT) and > 1000 nM in experiment [3].

A word on the IC50: it is the point on the concentration scale where inhibition reaches its midpoint. Low readings indicate higher potency, high ones lower potency.
